What was measured:
redroot pigweed = test: Test Example 5: herbicidal effect by foliage application, plastic box (Table 20, symbol N); format: in vivo, redroot pigweed (Amaranthus retroflexus); details: foliage application, 320 g/ha, three weeks after application
How it was run: (§1)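 Sow seeds spot-wise in sterilized diluvial soil; cover with ~1.5 cm soil. Grow 14 days in greenhouse, 25° C. to 30° C. Spray foliage with emulsion diluted to predetermined amount. Rate effect after 3 weeks.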

barnyard grass [1] = test: Test Example 3: herbicidal effect by foliage application, Wagner pot (Table 18, symbol H); format: in vivo, barnyard grass (Echinochloa crus-galli); details: for herbicidal effect on barnyard grass (H): 320 g/ha; for Herbicidal effect on H (barnyard grass), foliage application: amount of applied herbicide 320 g/ha
How it was run: (§2)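 Plants were sown in alluvial soil held under 0.1–0.5 cm standing water and grown 14 days in a greenhouse at 25–30 °C. An emulsifiable formulation, water-diluted to the set dose, was then sprayed onto the foliage, and effects were scored three weeks later using previously defined criteria.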

velvetleaf [2] = test: Test Example 5: herbicidal effect by foliage application, plastic box (Table 20, symbol M); format: in vivo, velvetleaf (Abutilon theophrasti); details: foliage application, 320 g/ha, three weeks after application
How it was run: as §1

barnyard grass [3] = test: Test Example 5: herbicidal effect by foliage application, plastic box (Table 20, symbol H); format: in vivo, barnyard grass (Echinochloa crus-galli); details: foliage application, 320 g/ha, three weeks after application
How it was run: as §1

green foxtail [4] = test: Test Example 5: herbicidal effect by foliage application, plastic box (Table 20, symbol G); format: in vivo, green foxtail (Setaria viridis); details: foliage application, 320 g/ha, three weeks after application
How it was run: as §1

rice flat sedge = test: Test Example 3: herbicidal effect by foliage application, Wagner pot (Table 18, symbol E); format: in vivo, rice flat sedge (Cyperus iria); details: for herbicidal effect on rice flat sedge (E): 320 g/ha; for Herbicidal effect on E (rice flat sedge), foliage application: amount of applied herbicide 320 g/ha
How it was run: as §2

late watergrass = test: Test Example 1: herbicidal activity, application before weed generation under submerged conditions (Table 16, symbol A); format: in vivo, late watergrass (Echinochloa oryzicola); details: amount of applied herbicide 320 g/ha
How it was run: (§3)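 Alluvial soil was flooded to 4 cm depth, weed seeds were sown mixed and 2.5-leaf rice seedlings were transplanted. On sowing day, the compound's emulsion, diluted in water to a set dose, was applied to the water surface. Plants grew at 25–30 °C and were scored 0–5 after three weeks.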

Italian ryegrass = test: Test Example 4: herbicidal effect by soil treatment (Table 19, symbol K); format: in vivo, Italian ryegrass (Lolium multiflorum); details: amount of applied herbicide 320 g/ha
How it was run: (§4)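 Applied as a water-diluted emulsion, the compound was sprayed onto soil covering newly sown seeds. Evaluation came three weeks after application, in a greenhouse held at 25° C. to 30° C.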

windgrass [5] = test: Test Example 4: herbicidal effect by soil treatment (Table 19, symbol L); format: in vivo, windgrass (Apera spica-venti); details: amount of applied herbicide 320 g/ha
How it was run: as §4

blackgrass = test: Test Example 5: herbicidal effect by foliage application, plastic box (Table 20, symbol J); format: in vivo, blackgrass (Alopecurus myosuroides); details: foliage application, 320 g/ha, three weeks after application
How it was run: as §1

southern crabgrass [6] = test: Test Example 4: herbicidal effect by soil treatment (Table 19, symbol F); format: in vivo, southern crabgrass (Digitaria ciliaris); details: amount of applied herbicide 320 g/ha
How it was run: as §4

southern crabgrass [7] = test: Test Example 5: herbicidal effect by foliage application, plastic box (Table 20, symbol F); format: in vivo, southern crabgrass (Digitaria ciliaris); details: foliage application, 320 g/ha, three weeks after application
How it was run: as §1

Japanese bulrush = test: Test Example 1: herbicidal activity, application before weed generation under submerged conditions (Table 16, symbol B); format: in vivo, Japanese bulrush (Schoenoplectus juncoides); details: amount of applied herbicide 320 g/ha
How it was run: as §3

velvetleaf [8] = test: Test Example 4: herbicidal effect by soil treatment (Table 19, symbol M); format: in vivo, velvetleaf (Abutilon theophrasti); details: amount of applied herbicide 320 g/ha
How it was run: as §4

windgrass [9] = test: Test Example 5: herbicidal effect by foliage application, plastic box (Table 20, symbol L); format: in vivo, windgrass (Apera spica-venti); details: foliage application, 320 g/ha, three weeks after application
How it was run: as §1

persian speedwell = test: Test Example 4: herbicidal effect by soil treatment (Table 19, symbol R); format: in vivo, Persian speedwell (Veronica persica); details: amount of applied herbicide 320 g/ha
How it was run: as §4

wild oat = test: Test Example 5: herbicidal effect by foliage application, plastic box (Table 20, symbol I); format: in vivo, wild oat (Avena fatua); details: foliage application, 320 g/ha, three weeks after application
How it was run: as §1

green foxtail [10] = test: Test Example 4: herbicidal effect by soil treatment (Table 19, symbol G); format: in vivo, green foxtail (Setaria viridis); details: amount of applied herbicide 320 g/ha
How it was run: as §4

SMILES | N: redroot pigweed, herbicidal effect grade (redroot pigweed) | herbicidal effect on barnyard grass (H) (barnyard grass [1]) | M: velvetleaf, herbicidal effect grade (velvetleaf [2]) | H: barnyard grass, herbicidal effect grade (barnyard grass [3]) | G: green foxtail, herbicidal effect grade (green foxtail [4]) | herbicidal effect on rice flat sedge (E) (rice flat sedge) | Herbicidal effect, A: late watergrass (late watergrass) | K: Italian ryegrass, herbicidal effect grade (Italian ryegrass) | L: windgrass, herbicidal effect grade (windgrass [5]) | J: blackgrass, herbicidal effect grade (blackgrass) | F: southern crabgrass, herbicidal effect grade (southern crabgrass [6]) | F: southern crabgrass, herbicidal effect grade (southern crabgrass [7]) | Herbicidal effect, B: Japanese bulrush (Japanese bulrush) | M: velvetleaf, herbicidal effect grade (velvetleaf [8]) | L: windgrass, herbicidal effect grade (windgrass [9]) | R: persian speedwell, herbicidal effect grade (persian speedwell) | I: wild oat, herbicidal effect grade (wild oat) | G: green foxtail, herbicidal effect grade (green foxtail [10]) | Herbicidal effect on H (barnyard grass), foliage application (barnyard grass [1]) | herbicidal effect on velvetleaf (M) (velvetleaf [2]) | other results
CCCC(=O)Oc1c(C)nn(C)c(=O)c1-c1c(-c2ccccc2)sc2cc(OC)ccc12 [3-062] | 2 (Herbicidal rate of 20% or more and less than 40%) | 2 (Herbicidal rate of 20% or more and less than 40%) | 3 (Herbicidal rate of 40% or more and less than 70%) | 0 (Herbicidal rate of 5% or less (almost no effect)) | 0 (Herbicidal rate of 5% or less (almost no effect)) | 5 (Herbicidal rate of 90% or more (almost completely withered)) | 3 (Herbicidal rate of 40% or more and less than 70%) | 0 (Herbicidal rate of 5% or less (almost no effect)) | 0 (Herbicidal rate of 5% or less (almost no effect)) | 0 (Herbicidal rate of 5% or less (almost no effect)) | 0 (Herbicidal rate of 5% or less (almost no effect)) | 0 (Herbicidal rate of 5% or less (almost no effect)) | 4 (Herbicidal rate of 70% or more and less than 90%) | 0 (Herbicidal rate of 5% or less (almost no effect)) | 0 (Herbicidal rate of 5% or less (almost no effect)) | 4 (Herbicidal rate of 70% or more and less than 90%) | 2 (Herbicidal rate of 20% or more and less than 40%) |  |  |  | 
CCCC(=O)Oc1c(C)nn(C)c(=O)c1-c1c(-c2ccc(F)cc2OC)sc2cc(OC)ccc12 [3-077] | 3 (Herbicidal rate of 40% or more and less than 70%) | 5 (Herbicidal rate of 90% or more (almost completely withered)) | 4 (Herbicidal rate of 70% or more and less than 90%) | 0 (Herbicidal rate of 5% or less (almost no effect)) | 5 (Herbicidal rate of 90% or more (almost completely withered)) | 5 (Herbicidal rate of 90% or more (almost completely withered)) | 5 (Herbicidal rate of 90% or more (almost completely withered)) | 3 (Herbicidal rate of 40% or more and less than 70%) | 3 (Herbicidal rate of 40% or more and less than 70%) | 4 (Herbicidal rate of 70% or more and less than 90%) | 0 (Herbicidal rate of 5% or less (almost no effect)) | 0 (Herbicidal rate of 5% or less (almost no effect)) | 5 (Herbicidal rate of 90% or more (almost completely withered)) | 0 (Herbicidal rate of 5% or less (almost no effect)) | 4 (Herbicidal rate of 70% or more and less than 90%) | 4 (Herbicidal rate of 70% or more and less than 90%) | 4 (Herbicidal rate of 70% or more and less than 90%) |  |  |  | 
COCCOc1ccc(-c2oc3ccccc3c2-c2c(O)c(C)nn(C)c2=O)cc1 [Compound No. 8-007, 5-hydroxy-4-(2-(4-(2-methoxyethoxy)phenyl)benzofuran-3-yl)-2,6-dimethylpyridazin-3-(2H)-one] |  |  |  |  |  |  | 5 (Herbicidal rate of 90% or more (almost completely withered)) | 4 (Herbicidal rate of 70% or more and less than 90%) | 0 (Herbicidal rate of 5% or less (almost no effect)) |  | 5 (Herbicidal rate of 90% or more (almost completely withered)) |  | 5 (Herbicidal rate of 90% or more (almost completely withered)) | 3 (Herbicidal rate of 40% or more and less than 70%) |  | 2 (Herbicidal rate of 20% or more and less than 40%) |  | 5 (Herbicidal rate of 90% or more (almost completely withered)) | 5 (Herbicidal rate of 90% or more (almost completely withered)) | 5 (Herbicidal rate of 90% or more (almost completely withered)) | herbicidal effect on barnyard grass (H) (barnyard grass [3]): 5 (Herbicidal rate of 90% or more (almost completely withered)); herbicidal effect on green foxtail (G) (green foxtail [4]): 5 (Herbicidal rate of 90% or more (almost completely withered)); Herbicidal effect on E (rice flat sedge), foliage application (rice flat sedge): 5 (Herbicidal rate of 90% or more (almost completely withered)); herbicidal effect on blackgrass (J) (blackgrass): 5 (Herbicidal rate of 90% or more (almost completely withered)); herbicidal effect on southern crabgrass (F) (southern crabgrass [7]): 5 (Herbicidal rate of 90% or more (almost completely withered)); herbicidal effect on windgrass (L) (windgrass [9]): 0 (Herbicidal rate of 5% or less (almost no effect)); herbicidal effect on wild oat (I) (wild oat): 1 (Herbicidal rate of 5% or more and less than 20%)
COc1ccc(-c2oc3ccc(F)cc3c2-c2c(O)c(C)nn(C)c2=O)cc1 [Compound No. 9-020, 4-(5-fluoro-2-(4-methoxyphenyl)benzofuran-3-yl)-5-hydroxy-2,6-dimethylpyridazin-3(2H)-one] |  |  |  |  |  |  | 5 (Herbicidal rate of 90% or more (almost completely withered)) | 5 (Herbicidal rate of 90% or more (almost completely withered)) | 2 (Herbicidal rate of 20% or more and less than 40%) |  | 4 (Herbicidal rate of 70% or more and less than 90%) |  | 5 (Herbicidal rate of 90% or more (almost completely withered)) | 2 (Herbicidal rate of 20% or more and less than 40%) |  | 5 (Herbicidal rate of 90% or more (almost completely withered)) |  | 1 (Herbicidal rate of 5% or more and less than 20%) | 5 (Herbicidal rate of 90% or more (almost completely withered)) | 5 (Herbicidal rate of 90% or more (almost completely withered)) | herbicidal effect on barnyard grass (H) (barnyard grass [3]): 5 (Herbicidal rate of 90% or more (almost completely withered)); herbicidal effect on green foxtail (G) (green foxtail [4]): 5 (Herbicidal rate of 90% or more (almost completely withered)); Herbicidal effect on E (rice flat sedge), foliage application (rice flat sedge): 5 (Herbicidal rate of 90% or more (almost completely withered)); herbicidal effect on blackgrass (J) (blackgrass): 4 (Herbicidal rate of 70% or more and less than 90%); herbicidal effect on southern crabgrass (F) (southern crabgrass [7]): 4 (Herbicidal rate of 70% or more and less than 90%); herbicidal effect on windgrass (L) (windgrass [9]): 5 (Herbicidal rate of 90% or more (almost completely withered)); herbicidal effect on wild oat (I) (wild oat): 3 (Herbicidal rate of 40% or more and less than 70%)

Reference: patent publication US20230085307A1, “PYRIDAZINONE COMPOUND AND HERBICIDE” (NISSAN CHEMICAL CORPORATION, priority 2019, published 2023)
